Experimental data taken from patent publication US20210388022A1, “SUBSTITUTED GUANIDINO AND AMIDINO REAGENTS AND THE USE THEREOF FOR PROTEIN DENATURATION” (Waters Technologies Corporation, priority 2020, published 2021).
Counter-ions that a name gives are not always drawn.

Assays:
[1] = system: Polyclonal rabbit IgG (rIgG); assay: Native fluorescence assay of rabbit IgG denaturation (ex 280 nm, emission ratio 376/360 nm); type: biochemical; conditions: for denaturing power (in words): 5 mM concentration and lower temperatures
Description: To determine the effectiveness of the guanidine and amidine reagents from the table of FIG. 8, a native fluorescence assay was established using rabbit IgG. Upon excitation at 280 nm, emission was measured ratiometrically at two wavelengths 376 and 360 nm.
Fluorescence spectra were acquired at an excitation wavelength of 280 nm and emission intensity is reported as a ratio of 376 nm intensity divided by 360 nm intensity. An increase in 1376/1360 denotes a change in the microenvironment of tryptophan residues—specifically, their change from a hydrophobically surrounded native state to a solvent exposed denatured state.
The IgG sample was subjected to concentrations of 0.5, 5, and 50 mM and temperatures of either ambient, 50° C., 70° C., or 90° C. […] Fluorescence was performed with an excitation wavelength of 280 nm.
Polyclonal rabbit IgG (rIgG) was used as a test protein to evaluate the denaturation power of various reagents. The rIgG protein was dissolved and diluted to a concentration of 0.25 mg/mL with water, while also being subjected to the chemical compound of interest and an incubation at either room temperature, 50° C., 70° C., or 90° C. To generate a positive control for complete denaturation, the rIgG sample was subjected to room temperature incubations with guanidine hydrochloride at 0 and up to 8M concentrations. Native fluorescence of the resulting sample was thereafter measured using an excitation wavelength of 280 nm. Emission intensities at 376 and 360 nm were subsequently detected and reported as a ratio as a sensitive measure of rIgG denaturation and a change in the local environment of tryptophan residues.
Fluorescence intensity ratios obtained after incubation with reagent #1, reagent #2, and reagent #3 and either ambient, 50° C., 70° C., or 90° C. temperatures are provided in FIG. 3. Likewise, fluorescence intensity ratios obtained after incubation with reagent #4, reagent #5, and reagent #6 and either ambient, 50° C., 70° C., or 90° C. temperatures are provided in FIG. 4. In all experiments, the substituted guanidine and amidines were titrated to a neutral pH and their protonated ionization states prior to being incubated with protein sample.

Orencia® (abatacept) = biological target: T1, Orencia® (abatacept) (Homo sapiens, UniProt P16410, C103S); assay: N-glycan release and RapiFluor-MS labeling after denaturation, LC-FLR-MS profile; conditions: 5 mM tetramethylguanidine denatured Orencia®, no desalting
T1 construct: modified human IgG1 Fc (hinge-CH2-CH3) fusion partner; purchased Bristol-Myers Squibb
T1 sequence (P16410 with tags, fused parts or gaps limits assumed, stated change not applied): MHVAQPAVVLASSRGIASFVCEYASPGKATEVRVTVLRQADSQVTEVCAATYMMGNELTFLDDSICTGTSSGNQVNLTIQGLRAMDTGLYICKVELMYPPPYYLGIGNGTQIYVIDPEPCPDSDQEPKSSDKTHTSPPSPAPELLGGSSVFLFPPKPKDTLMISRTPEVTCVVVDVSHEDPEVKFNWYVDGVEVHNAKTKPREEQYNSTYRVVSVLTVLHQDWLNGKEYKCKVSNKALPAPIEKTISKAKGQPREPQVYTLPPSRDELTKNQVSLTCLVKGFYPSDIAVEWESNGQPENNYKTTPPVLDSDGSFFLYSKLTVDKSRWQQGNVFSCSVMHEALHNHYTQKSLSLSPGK
Description: In the example of FIG. 6, abatacept was denatured with 5 mM tetramethylguanidine at a 90° C. and incubated at 50° C. with PNGase F. The resulting N-glycosylamines were there derivatized with RapiFluor-MS™ and cleaned up with solid phase extraction using a GlycoWorks RapiFluor-MS™ N-glycan kit (according to manufacturer recommendations; Waters Technologies Corporation, Milford, Mass.). RapiFluor-MS™ labeled N-glycans from this tetramethylguanidinium denatured sample were thereafter profiled by […].
Thirty (30) μL of deglycosylated protein was labeled with 12 μL of RapiFluor-MS™ solution (68.7 mg/mL in DMF) for 5 minutes at room temperature, followed by dilution with 358 μL of acetonitrile for SPE clean-up. The total of 400 μL mixed solution was transferred to a pre-conditioned HILIC μElution SPE plate staged for operation on a positive pressure manifold with 3 psi pressurization. Each sample was loaded onto the plate and then twice washed with 600 μL of 1:9:90 (v/v/v) formic acid/water/acetonitrile. Finally, released glycans were eluted from individual wells with three, 30 μL of 200 mM ammonium acetate in 5% acetonitrile. Eluate was collected and transferred in LC vials for analysis. LC-FLR-MS settings and parameters used in these experiments are listed below in Table 2.

[2] = biological target: T2, Orencia® (abatacept), a glycosylated fusion protein (Homo sapiens, UniProt P16410, C103S); assay: Denaturation then PNGase F deglycosylation of abatacept, intact protein RPLC-MS; type: biochemical; conditions: 5 mM reagent, short 90° C. incubation, no desalting, PNGase F at 50° C.
T2 construct: modified human IgG1 Fc (hinge-CH2-CH3) fusion partner; purchased Bristol-Myers Squibb
T2 sequence (P16410 with tags, fused parts or gaps limits assumed, stated change not applied): as above
Description: An Orencia® stock solution (20 mg/mL) was diluted 10 times with water to a concentration of 2 mg/mL, followed by the addition of 10 μL diluted sample into three 1 mL polypropylene tubes. Four (4) μL of 50 mM guanidino reagents, tetramethylguanidine (reagent #1), t-butyl tetramethylguanidine (reagent #2), and trazabicyclodecene (reagent #3), were added into each tube, separately. Finally, 8 μL of 50 mM HEPES, pH 7.9 buffer was transferred into each tube along with 16.4 μL of water.
The contents of each well were subsequently mixed by aspiration. Each sample was then incubated at 90° C., 3 minutes for denaturation and then removed from the heating block to cool at room temperature for 3 minutes. Each denatured glycoprotein sample was treated with 1.6 μL of GlycoWorks Rapid PNGase F at 50° C. for 5 minutes. Aliquots containing 10 μL of each deglycosylated sample were submitted for intact protein analysis, while the remaining 30 μL samples were subjected to RapiFluor-MS™ labeling and released glycan analysis (see details in Example 3).
Additionally, two controls were applied. For a positive control (FIG. 5D), 5 μL of Orencia® stock solution was mixed with 45 μL of 8M guanidine hydrochloride at room temperature, followed by desalting with a Thermo Zeba spin column. The resulting, 10 μL desalted sample was mixed with 8 μL of 50 mM HEPES, pH 7.9, 20.4 μL of water and 1.6 μL of GlycoWorks Rapid PNGase F before being incubated at 50° C. for 5 min to perform deglycosylation. Ten (10) μL of this deglycosylated protein, as well as 10 μL of 2 mg/mL Orencia® solution without denaturation, were tested as positive and negative controls of intact protein analysis. LCMS settings and parameters used for intact protein analysis are listed below in Table 1.

## CCCCCCCCCCCC1(C)OCC(COCCCS(=O)(=O)[O-])O1.[Na+] (stereo not drawn) [RapiGest SF]
[1]; 1% (w/v) RapiGest SF [~24 mM], suggests only partial denaturation
  fluorescence intensity ratio of rIgG: approximately 1.4

## CN(C)C(=N)N(C)C [Reagent 1, 1,1,3,3-tetramethylguanidine]
Orencia® (abatacept)
  interference in LC-FLR-MS data of RapiFluor-MS labeled N-glycans: no significant interferences
[1]
  denaturing power (in words): significantly reduced
[2]
  extent of PNGase F deglycosylation of abatacept after denaturation: as extensively deglycosylated as the guanidinium hydrochloride denatured controls

## CN(C)C(=NC(C)(C)C)N(C)C [Reagent 2, 2-tert-butyl-1,1,3,3-tetramethylguanidine]
[1]
  denaturing power (in words): significantly reduced
[2]
  extent of PNGase F deglycosylation of abatacept after denaturation: as extensively deglycosylated as the guanidinium hydrochloride denatured controls

## C1CN=C2NCCCN2C1 [Reagent 3, 1,5,7-triazabicyclo[4.4.0]dec-5-ene]
[1]
  denaturing power (in words): significantly reduced
[2]
  extent of PNGase F deglycosylation of abatacept after denaturation: as extensively deglycosylated as the guanidinium hydrochloride denatured controls

## N=C(N)N [guanidine, guanidine hydrochloride, reference compound]
[1]; 8M guanidine, room temperature, native state rIgG approximately 1.3
  fluorescence intensity ratio of rIgG: approximately 1.6
